Laboratory results: the supplement of paper PMC11451515

Test system: NOMO1
Experiment: cell viability relative to DMSO control; higher = less cytotoxic
Settings: 48 h
In short: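 Viability was expressed as a per-plate percentage of DMSO wells, with cell-free wells as background. Leukemia cells (NOMO1 or SEM at 500 cells/well, P12-Ichikawa at 1000 cells/well) were adapted for at least four passages in each medium and seeded in 1536-well plates (5 μl). Library compounds in DMSO were pin-dosed over an 11-point threefold series from 47 μM to 0.79 nM, and CellTiter-Glo One luminescence was read after 48 h at 37°C.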

[1] = HPLM + 10% dialyzed FBS, 0.000781 µM
[2] = HPLM + 10% dialyzed FBS, 0.00234 µM
[3] = HPLM + 10% dialyzed FBS, 0.00702 µM
[4] = HPLM + 10% dialyzed FBS, 0.0211 µM
[5] = HPLM + 10% dialyzed FBS, 0.0632 µM
[6] = HPLM + 10% dialyzed FBS, 0.19 µM
[7] = HPLM + 10% dialyzed FBS, 0.569 µM
[8] = HPLM + 10% dialyzed FBS, 1.71 µM
[9] = HPLM + 10% dialyzed FBS, 5.12 µM
[10] = HPLM + 10% dialyzed FBS, 15.4 µM
[11] = HPLM + 10% dialyzed FBS, 46.1 µM
[12] = RPMI 5 mM glucose + 10% FBS, 0.000781 µM
[13] = RPMI 5 mM glucose + 10% FBS, 0.00234 µM
[14] = RPMI 5 mM glucose + 10% FBS, 0.00702 µM
[15] = RPMI 5 mM glucose + 10% FBS, 0.0211 µM
[16] = RPMI 5 mM glucose + 10% FBS, 0.0632 µM
[17] = RPMI 5 mM glucose + 10% FBS, 0.19 µM
[18] = RPMI 5 mM glucose + 10% FBS, 0.569 µM
[19] = RPMI 5 mM glucose + 10% FBS, 1.71 µM
[20] = RPMI 5 mM glucose + 10% FBS, 5.12 µM
[21] = RPMI 5 mM glucose + 10% FBS, 15.4 µM
[22] = RPMI 5 mM glucose + 10% FBS, 46.1 µM
[23] = RPMI 5 mM glucose + 10% dialyzed FBS, 0.000781 µM
[24] = RPMI 5 mM glucose + 10% dialyzed FBS, 0.00234 µM
[25] = RPMI 5 mM glucose + 10% dialyzed FBS, 0.00702 µM
[26] = RPMI 5 mM glucose + 10% dialyzed FBS, 0.0211 µM
[27] = RPMI 5 mM glucose + 10% dialyzed FBS, 0.0632 µM
[28] = RPMI 5 mM glucose + 10% dialyzed FBS, 0.19 µM
[29] = RPMI 5 mM glucose + 10% dialyzed FBS, 0.569 µM
[30] = RPMI 5 mM glucose + 10% dialyzed FBS, 1.71 µM
[31] = RPMI 5 mM glucose + 10% dialyzed FBS, 5.12 µM
[32] = RPMI 5 mM glucose + 10% dialyzed FBS, 15.4 µM
[33] = RPMI 5 mM glucose + 10% dialyzed FBS, 46.1 µM

Row | SMILES | cell viability [1] | cell viability [2] | cell viability [3] | cell viability [4] | cell viability [5] | cell viability [6] | cell viability [7] | cell viability [8] | cell viability [9] | cell viability [10] | cell viability [11] | cell viability [12] | cell viability [13] | cell viability [14] | cell viability [15] | cell viability [16] | cell viability [17] | cell viability [18] | cell viability [19] | cell viability [20] | cell viability [21] | cell viability [22] | cell viability [23] | cell viability [24] | cell viability [25] | cell viability [26] | cell viability [27] | cell viability [28] | cell viability [29] | cell viability [30] | cell viability [31] | cell viability [32] | cell viability [33]
1 | C[C@]12COC(=O)C[C@@H]1CC[C@@H]1[C@@H]2CC[C@@]2(C)[C@H]1CC[C@]2(C)O | 98% | 109% | 103% | 91.1% | 118% | 98% | 98.6% | 103% | 104% | 97.1% | 80% | 90.7% | 87.1% | 86.4% | 97.3% | 101% | 103% | 95.1% | 101% | 90.8% | 81.2% | 84.1% | 97.6% | 101% | 91.4% | 102% | 103% | 92.2% | 78.2% | 92% | 88.3% | 92.4% | 83.1%
2 | CCN1CCN(c2ccc(Nc3cc(N(C)C(=O)Nc4c(Cl)c(OC)cc(OC)c4Cl)ncn3)cc2)CC1 | 103% | 120% | 124% | 124% | 102% | 117% | 98.8% | 90.9% | 41.7% | 25.9% | 11.6% | 119% | 131% | 114% | 118% | 110% | 118% | 121% | 111% | 63.3% | 34.3% | 15.9% | 103% | 106% | 119% | 116% | 130% | 103% | 111% | 108% | 68.8% | 32.7% | 14.9%
3 | Cc1ccccc1C(=O)c1ccc(Nc2ccc(Br)cc2N)cc1Cl |  |  |  |  |  |  |  |  |  |  |  | 107% | 123% | 116% | 122% | 120% | 113% | 110% | 121% | 116% | 103% | 90.1% | 131% | 116% | 112% | 120% | 118% | 126% | 107% | 121% | 114% | 93.7% | 71.5%
4 | C[N]1C=C(C=N1)C2=C3\C=N/NC(=O)C4=C3C(=CC(=C4)NC(=O)[C@H](N)C5CCCCC5)[NH]2 | 99.8% | 111% | 97.7% | 91.1% | 104% | 101% | 91.6% | 78.3% | 72.6% | 35.7% | 36.6% | 95.1% | 97.2% | 93.5% | 87% | 100% | 97.9% | 84.3% | 86.4% | 80.2% | 26% | 29.1% | 101% | 90.4% | 105% | 89.7% | 90.7% | 87% | 95.4% | 94.1% | 60.3% | 20.5% | 29%
5 | O=C1NC(=O)/C(=C/c2ccc3nccc(-c4ccncc4)c3c2)S1 | 129% | 96.8% | 124% | 97.8% | 89.6% | 85.4% | 55.6% | 50.8% | 33.8% | 26% | 14.7% | 115% | 99.6% | 107% | 113% | 101% | 92.9% | 84.1% | 66.7% | 36.8% | 29.1% | 16% | 107% | 115% | 92% | 97.3% | 88% | 63.2% | 61% | 55.9% | 34.7% | 27.2% | 13.6%
6 | CC[S+](=O)([O-])c1cccc(-c2cc(C(=O)NC3CCN(C)CC3)c(C)c3[nH]c4ncc(C)cc4c23)c1 | 118% | 128% | 120% | 136% | 126% | 89.9% | 115% | 68.2% | 52.6% | 51% | 6.96% | 114% | 115% | 114% | 135% | 128% | 111% | 77.3% | 83.9% | 92.6% | 47% | 8.64% | 124% | 122% | 130% | 128% | 138% | 87.7% | 80.7% | 86.8% | 80.3% | 48.3% | 8.02%
7 | NNCCc1ccccc1 | 109% | 133% | 119% | 131% | 112% | 115% | 108% | 118% | 111% | 60% | 30.4% | 117% | 132% | 122% | 117% | 124% | 117% | 115% | 114% | 114% | 103% | 21.2% | 116% | 116% | 129% | 107% | 125% | 121% | 122% | 109% | 109% | 114% | 75%
8 | COCC1(CO)C(=O)C2CCN1CC2 (centres undefined) | 116% | 106% | 103% | 123% | 104% | 121% | 92.4% | 130% | 105% | 60.1% | 31.7% | 91.9% | 95.4% | 102% | 106% | 107% | 104% | 103% | 100% | 111% | 79% | 18.1% | 93.8% | 110% | 94.6% | 98.8% | 115% | 108% | 90.9% | 94.6% | 104% | 94.8% | 50.2%
9 | O=C(O)CCC1CCC(c2cc(F)ccc2F)([S+](=O)([O-])c2ccc(Cl)cc2)CC1 (centres undefined) | 98.6% | 117% | 137% | 124% | 140% | 139% | 146% | 85.2% | 30.5% | 35.4% | 34% | 122% | 115% | 125% | 124% | 117% | 146% | 126% | 64% | 25.2% | 21.7% | 23.8% | 109% | 137% | 104% | 129% | 126% | 137% | 125% | 102% | 28.5% | 33% | 28.2%
10 | CN[C@H]1CCC2=CC(=C(OC)C(=C2C/3=C/C=C(OC)\C(=O)/C=C13)OC)OC | 119% | 96% | 75.2% | 30.1% | 32.9% | 38.4% | 43.5% | 40.9% | 31.4% | 33.9% | 25.8% | 120% | 109% | 90.7% | 22.8% | 22.3% | 24.5% | 25.4% | 22.4% | 21.1% | 17.1% | 10.4% | 108% | 97.1% | 102% | 23.5% | 31.9% | 28.3% | 27.9% | 28.7% | 23.1% | 21.9% | 14.3%
11 | CC1=C(C)C(=O)C(C(CCCCCC(=O)O)c2ccccc2)=C(C)C1=O (centres undefined) | 75.8% | 78.1% | 83.4% | 93.9% | 93.6% | 109% | 53.4% | 97.9% | 27.8% | 27.1% | 13.5% | 68% | 82.7% | 70.7% | 74.7% | 74.9% | 79.3% | 76.1% | 80.4% | 19.6% | 22.3% | 12.5% | 75.6% | 78.9% | 75% | 87.7% | 83.7% | 84.2% | 86.4% | 78% | 25.1% | 27.4% | 15%
12 | Cc1onc(-c2ccccc2Cl)c1C(=O)N[C@@H]1C(=O)N2[C@@H]1SC(C)(C)[C@@H]2C(=O)[O-] | 104% | 104% | 123% | 116% | 98.9% | 103% | 105% | 113% | 92.8% | 105% | 84.7% | 112% | 119% | 134% | 110% | 104% | 115% | 115% | 107% | 99.5% | 97.9% | 94.3% | 117% | 124% | 123% | 103% | 111% | 103% | 102% | 108% | 110% | 84.1% | 96.3%
13 | OC[C@H]1O[C@H]([C@H](O)[C@@H]1O)N2\C=C/C(=O)NC2=O | 111% | 127% | 105% | 114% | 122% | 107% | 103% | 119% | 118% | 95.4% | 98.4% | 89.4% | 87.3% | 95.6% | 85.4% | 94.7% | 96.5% | 94.6% | 91.4% | 79.4% | 91.6% | 80.8% | 93.9% | 85.1% | 99.8% | 99.3% | 95.7% | 103% | 104% | 93.7% | 96% | 90.5% | 87.8%
14 | CC(C)C1NC(=O)C(NC(=O)C2=C3\N=C\4/C(=C(C)\C(=O)\C(=C4C(=O)NC5C(C)OC(=O)C(C(C)C)N(C)C(=O)CN(C)C(=O)C6CCCN6C(=O)C(NC5=O)C(C)C)N)OC3=C(C)C=C2)C(C)OC(=O)C(C(C)C)N(C)C(=O)CN(C)C(=O)C7CCCN7C1=O (centres undefined) | 7.64% | 9.4% | 7.42% | 5.43% | 6.88% | 5.51% | 6.57% | 6.12% | 3.81% | 2.42% | 2.47% | 7.96% | 9.36% | 7.73% | 5.14% | 6.66% | 5.99% | 5.54% | 6.58% | 4.43% | 2.79% | 1.97% | 5.95% | 8.79% | 6.56% | 5.07% | 5.04% | 5.51% | 4.5% | 3.94% | 3.31% | 2.14% | 2%
15 | CCOC(=O)N1CCN(/[N+]([O-])=N/Oc2ccc([N+](=O)[O-])cc2C#N)CC1 | 118% | 99.3% | 109% | 110% | 135% | 114% | 117% | 97.1% | 39.5% | 39.6% | 36.1% | 98.4% | 97.4% | 114% | 105% | 102% | 105% | 122% | 120% | 24.5% | 24.6% | 18.2% | 92.8% | 106% | 129% | 111% | 126% | 115% | 118% | 108% | 30.8% | 24.6% | 18.3%
